The results in this text go back to patent US8106055B2, “Substituted amide compounds” (Gruenenthal GmbH, priority 2007, dated 2012).

The target in assay [1] is T1, human bradykinin 1 receptor (B1R) (Homo sapiens, UniProt P46663).
T1 construct: expressed in transfected cells; host or cells: CHO K1 cells
T1 sequence (P46663 1-353): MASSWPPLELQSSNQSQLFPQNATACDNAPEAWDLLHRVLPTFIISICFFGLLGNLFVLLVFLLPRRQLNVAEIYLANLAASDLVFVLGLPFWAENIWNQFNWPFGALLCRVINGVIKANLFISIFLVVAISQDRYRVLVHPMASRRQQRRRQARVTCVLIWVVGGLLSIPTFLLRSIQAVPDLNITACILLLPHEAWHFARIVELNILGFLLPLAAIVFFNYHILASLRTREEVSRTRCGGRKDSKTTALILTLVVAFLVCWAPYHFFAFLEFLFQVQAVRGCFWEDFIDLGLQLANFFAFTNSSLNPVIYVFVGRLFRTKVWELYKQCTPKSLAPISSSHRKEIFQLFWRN
Put plainly: Functional investigation on the human bradykinin 1 receptor (B1R), Ca2+ FLIPR assay in CHO K1 hB1R cells. The class given is cell-based. Conditions: B1R antagonism human; test substance 10 μM; Ca2+ FLIPR, CHO K1 hB1R cells. The method in brief: (§1)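 Fluo-4 Ca2+ readout, peak fluorescence. Stable CHO K1 transfectants; compound pre-incubated 10-20 min, then EC80 agonist—Lys-Des-Arg9-BK for hB1R, Des-Arg9-BK for rB1R. % inhibition vs maximal inhibition; IC50 from multiple concentrations, duplicate/triplicate, ≥2 independent runs.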

In assay [2] the target is T2, bradykinin 1 receptor (B1R) of the rat (Rattus norvegicus, UniProt P97583).
T2 construct: expressed in transfected cells; host or cells: CHO K1 cells
T2 sequence (P97583 1-337): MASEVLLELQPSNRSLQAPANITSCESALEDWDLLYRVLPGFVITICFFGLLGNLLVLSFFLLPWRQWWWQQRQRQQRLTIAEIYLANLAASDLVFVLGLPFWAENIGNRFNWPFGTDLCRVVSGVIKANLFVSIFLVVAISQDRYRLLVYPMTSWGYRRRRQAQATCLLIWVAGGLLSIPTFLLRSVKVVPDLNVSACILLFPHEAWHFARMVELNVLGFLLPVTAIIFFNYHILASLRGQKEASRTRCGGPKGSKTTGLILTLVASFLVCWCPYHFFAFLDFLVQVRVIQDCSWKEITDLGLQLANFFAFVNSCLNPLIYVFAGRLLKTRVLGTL
Put plainly: Functional investigation on the rat bradykinin 1 receptor (B1R), Ca2+ FLIPR assay in CHO K1 rB1R cells. The class given is cell-based. The conditions noted are these: B1R antagonism rat; test substance 10 μM; Ca2+ FLIPR, CHO K1 rB1R cells. The method in brief: as §1

With `CN(C)C(c1cccc(F)c1)C1CCC(CNC(=O)COCCN(C)S(=O)(=O)c2ccc(OC(F)(F)F)cc2)CC1` (stereo not shown) [Example 303], the “B1R Ant. h [10 μM] % Inhibition” value in assay [1] is reported as −19%. The “B1R Ant. r [10 μM] % Inhibition” value in assay [2] came out at 29%.
Taken in the same sequence, the figures for `CN(C)C(c1ccc(Cl)cc1)C1CCC(CNC(=O)COCCN(Cc2ccccc2)S(=O)(=O)c2ccccc2)CC1` (stereo not shown) [Example 343] were 12% and −15%.
Taken in the same sequence, the figures for `Cc1ccc(S(=O)(=O)N2CCC(OCC(=O)NCCC3CCC(C(c4ccc(Cl)cc4)N(C)C)CC3)C2)cc1` (stereo not shown) [Example 305] were 30% and 29%.
The like results for `COc1cc(C)c(S(=O)(=O)N(C)CCOCC(=O)NCC2CCC(C(c3ccc(Cl)cc3)N(C)C)CC2)c(C)c1C` (stereo not shown) [Example 298] were, in that order, 103% and 14%.
`CN(C)C(c1cccc(F)c1)C1CCC(CCNC(=O)COC2CCCN(S(=O)(=O)c3ccccc3)C2)CC1` (stereo not shown) [Example 326]: the “B1R Ant. h [10 μM] % Inhibition” value in assay [1] is listed as −5%. Further, the “B1R Ant. r [10 μM] % Inhibition” value in assay [2] is recorded as −6%.
The like results for `CN(C)C(c1cccc(F)c1)C1CCC(CCNC(=O)COCCN2CCN(S(=O)(=O)c3ccccc3)CC2)CC1` (stereo not shown) [Example 325] were, in that order, 45% and 6%.
As to `COc1cc(C)c(S(=O)(=O)N(C)CCOCC(=O)NCCC2CCC(C(c3ccc(Cl)cc3)N(C)C)CC2)c(C)c1C` (stereo not shown) [Example 317], in assay [1], the “B1R Ant. h [10 μM] % Inhibition” value amounted to 103%. Moreover, the “B1R Ant. r [10 μM] % Inhibition” value in assay [2] turned out to be 18%.
Take `COc1cc(C)c(S(=O)(=O)N(C)CCOCC(=O)NCC2CCC(C(c3ccc(Cl)cc3)N(C)C)CC2)c(C)c1` (stereo not shown) [Example 348]: the “B1R Ant. h [10 μM] % Inhibition” value in assay [1] was found to be 103%. Further, the “B1R Ant. r [10 μM] % Inhibition” value in assay [2] amounted to 99%.
Taken in the same sequence, the figures for `COc1cc(C)c(S(=O)(=O)N2CCC(OCC(=O)NCC3CCC(C(c4cccc(F)c4)N(C)C)CC3)CC2)c(C)c1C` (stereo not shown) [Example 287] were 1% and −1%.
The like results for `COc1ccc(S(=O)(=O)N(C)CCOCC(=O)NCCC2CCC(C(c3cccc(F)c3)N(C)C)CC2)cc1` (stereo not shown) [Example 292] were, in that order, 20% and 34%.
Taken in the same sequence, the figures for `COc1ccc(S(=O)(=O)N(C)CCOCC(=O)NCCC2CCC(C(c3cccc(F)c3)N(C)C)CC2)cc1OC` (stereo not shown) [Example 293] were −7% and 2%.
On to `COc1ccc(S(=O)(=O)N2CCCCC2COCC(=O)NCCC2CCC(C(c3ccc(Cl)cc3)N(C)C)CC2)cc1` (stereo not shown) [Example 311], for which the “B1R Ant. h [10 μM] % Inhibition” value in assay [1] was found to be 69%. The “B1R Ant. r [10 μM] % Inhibition” value in assay [2] amounted to 64%.
The like results for `COc1cc(C)c(S(=O)(=O)N2CCC(OCC(=O)NC3CCC(C(c4cccc(F)c4)N(C)C)CC3)CC2)c(C)c1C` (stereo not shown) [Example 286] were, in that order, 37% and −2%.
The like results for `CCN(CCOCC(=O)NCC1CCC(C(c2ccc(Cl)cc2)N(C)C)CC1)S(=O)(=O)c1c(C)cc(OC)c(C)c1C` (stereo not shown) [Example 310] were, in that order, 89% and 33%.
Taken in the same sequence, the figures for `CN(C)C(c1cccc(F)c1)C1CCC(NC(=O)COCCN(C)S(=O)(=O)c2cccc(C(F)(F)F)c2)CC1` (stereo not shown) [Example 297] were 15% and 16%.
With `Cc1ccc(S(=O)(=O)N(C)CCOCC(=O)NCCC2CCC(C(c3ccc(Cl)cc3)N(C)C)CC2)cc1` (stereo not shown) [Example 306], the “B1R Ant. h [10 μM] % Inhibition” value in assay [1] was determined as 38%. Moreover, the “B1R Ant. r [10 μM] % Inhibition” value in assay [2] is 14%.
Taken in the same sequence, the figures for `CN(C)C(c1ccc(Cl)cc1)C1CCC(CCNC(=O)COCCN(C)S(=O)(=O)c2cccc(C(F)(F)F)c2)CC1` (stereo not shown) [Example 289] were 51% and 13%.
As for `CN(C)C(c1cccc(F)c1)C1CCC(CCNC(=O)COCC2CCCN(S(=O)(=O)c3ccccc3)C2)CC1` (stereo not shown) [Example 295], in assay [1], the “B1R Ant. h [10 μM] % Inhibition” value is recorded as 7%. Also, the “B1R Ant. r [10 μM] % Inhibition” value in assay [2] is given as 44%.
Take `CN(C)C(c1ccc(Cl)cc1)C1CCC(CNC(=O)COC2CCCN(S(=O)(=O)c3ccccc3)C2)CC1` (stereo not shown) [Example 301]: in assay [1], the “B1R Ant. h [10 μM] % Inhibition” value came out at 2%. The “B1R Ant. r [10 μM] % Inhibition” value in assay [2] came to 18%.
Turning to `COc1cc(C)c(S(=O)(=O)N(CCOCC(=O)NCCC2CCC(C(c3cccc(F)c3)N(C)C)CC2)Cc2ccccc2)c(C)c1` (stereo not shown) [Example 358], in assay [1], the “B1R Ant. h [10 μM] % Inhibition” value came out at 66%. The “B1R Ant. r [10 μM] % Inhibition” value in assay [2] was 27%.
Taken in the same sequence, the figures for `CN(C)C(c1ccc(F)cc1)C1CCC(NC(=O)COC2CCN(S(=O)(=O)c3ccc(Cl)cc3Cl)C2)CC1` (stereo not shown) [Example 290] were 37% and 37%.
Taken in the same sequence, the figures for `CN(C)C(c1cccc(F)c1)C1CCC(CNC(=O)COCCN(C)S(=O)(=O)c2cccc(C(F)(F)F)c2)CC1` (stereo not shown) [Example 302] were 38% and 0%.
As for `CN(C)C(c1ccc(Cl)cc1)C1CCC(CNC(=O)COCCN(C)S(=O)(=O)c2cccc(C(F)(F)F)c2)CC1` (stereo not shown) [Example 314], the “B1R Ant. h [10 μM] % Inhibition” value in assay [1] is 74%. Further, the “B1R Ant. r [10 μM] % Inhibition” value in assay [2] amounted to 13%.
With `CN(C)C(c1cccc(F)c1)C1CCC(NC(=O)COC2CCN(S(=O)(=O)c3ccc(Cl)cc3Cl)C2)CC1` (stereo not shown) [Example 283], in assay [1], the “B1R Ant. h [10 μM] % Inhibition” value was 50%. In assay [2], the “B1R Ant. r [10 μM] % Inhibition” value is recorded as 24%.
The like results for `Cc1cc(C)c(S(=O)(=O)N2CCC(OCC(=O)NC3CCC(C(c4ccc(F)cc4)N(C)C)CC3)C2)c(C)c1` (stereo not shown) [Example 332] were, in that order, 57% and 32%.
For `CN(C)C(c1ccc(F)cc1)C1CCC(NC(=O)COC2CCN(S(=O)(=O)c3cccc(C(F)(F)F)c3)C2)CC1` (stereo not shown) [Example 330], in assay [1], the “B1R Ant. h [10 μM] % Inhibition” value was −6%. Besides, the “B1R Ant. r [10 μM] % Inhibition” value in assay [2] is 16%.
Taken in the same sequence, the figures for `CN(C)C(c1ccc(Cl)cc1)C1CCC(CCNC(=O)COCCN(C)S(=O)(=O)c2ccc(Cl)cc2)CC1` (stereo not shown) [Example 347] were 85% and 56%.
Taken in the same sequence, the figures for `CN(C)C(c1ccc(F)cc1)C1CCC(NC(=O)COCCN(C)S(=O)(=O)c2ccc(F)cc2)CC1` (stereo not shown) [Example 357] were 7% and 27%.
The like results for `COc1ccc(S(=O)(=O)N(C)CCOCC(=O)NCC2CCC(C(c3ccc(Cl)cc3)N(C)C)CC2)cc1` (stereo not shown) [Example 324] were, in that order, 42% and 48%.
Consider `CN(C)C(c1ccc(Cl)cc1)C1CCC(CNC(=O)COCC2CCCN(S(=O)(=O)c3ccccc3)C2)CC1` (stereo not shown) [Example 294], for which, in assay [1], the “B1R Ant. h [10 μM] % Inhibition” value was −3%. Further, the “B1R Ant. r [10 μM] % Inhibition” value in assay [2] was 32%.
The like results for `CN(C)C(c1ccc(Cl)cc1)C1CCC(CNC(=O)COCCN(C)S(=O)(=O)c2c(Cl)cc(Cl)cc2Cl)CC1` (stereo not shown) [Example 318] were, in that order, 104% and 3%.
The like results for `CN(C)C(c1ccc(F)cc1)C1CCC(CNC(=O)COCCN(C)S(=O)(=O)c2c(Cl)cccc2Cl)CC1` (stereo not shown) [Example 334] were, in that order, 103% and 83%.
